The record followed here is the RepoRT retention time repository (doi:10.1016/j.aca.2011.12.065).

Where a name gives a salt, the structure may show the parent alone.

The nature of one series: RP, Waters ACQUITY UPLC BEH C18, 100 × 2.1 mm, 1.7 µm; A: water + 0.1% formic acid, pH 3; B: 80% acetonitrile + 20% acetone + 0.1% formic acid, pH 3; gradient (min/%B) 0/0 6/100. The note with it: stereoisomer not certain.
Turning to `NC(CS)C(=O)O` (stereo not drawn) [l-cysteine], the LC retention time was 0.603 min.

For `NC(CSSCC(N)C(=O)O)C(=O)O` (stereo not drawn) [l-cystine], the LC retention time worked out at 0.546 min.

As to `NCCCCC(N)C(=O)O` (stereo not drawn) [l-lysine], the LC retention time turned out to be 0.51 min.

With `NCCCC(N)C(=O)O` (stereo not drawn) [l-ornithine monohydrochloride], the LC retention time turned out to be 0.517 min.

For `CCCCCCCCCCCC(=O)OC(CC(=O)[O-])C[N+](C)(C)C` (stereo not drawn) [lauroyl l-carnitine], the LC retention time came to 3.38 min.

`CC(=O)CCC(=O)O` [levulinic acid]: the LC retention time came to 1.39 min.

On to `CCCCCCCCCCCCCCCC(=O)OCC(O)COP(=O)([O-])OCC[N+](C)(C)C` (centres undefined) [lysoPC(16:0/0:0)], for which the LC retention time stood at 4.4 min.

Regarding `CCCCCCCCC=CCCCCCCCC(=O)OCC(O)COP(=O)([O-])OCC[N+](C)(C)C` (centres undefined) [lysoPC(18:1(9Z)/0:0)], the LC retention time was 4.5 min.

In the case of `OC1C(O)C(O)C(O)C(O)C1O` (centres undefined) [myo-inositol], the LC retention time came to 0.571 min.

As for `CC(=O)NC(CC(=O)O)C(=O)NC(CCC(=O)O)C(=O)O` (centres undefined) [n-acetyl-asp-glu], the LC retention time stood at 1.28 min.

As to `CC(=O)NC(Cc1ccc(O)cc1)C(=O)O` (stereo not drawn) [n-acetyl-l-tyrosine], the LC retention time was 1.53 min.

In the case of `CCCCCCCCCCCC(=O)N(C)CC(=O)O` [n-lauroylsarcosine], the LC retention time came to 4.27 min.

For `NC(=O)c1cccnc1` [nicotinamide], the LC retention time was determined as 0.969 min.

For `O=C([O-])c1cc(=O)[nH]c(=O)[nH]1` [orotic acid], the LC retention time worked out at 0.719 min.

On to `Nc1ccc(C(=O)NCC(=O)O)cc1` [p-aminohippuric acid], for which the LC retention time amounted to 1.29 min.

For `Nc1ccc(C(=O)O)cc1` [paba], the LC retention time amounted to 1.5 min.

`O=C1CCC(C(=O)N2CCCC2C(=O)O)N1` (centres undefined) [pglu-pro]: the LC retention time amounted to 1.43 min.

Regarding `O=C(O)C(O)Cc1ccccc1` (centres undefined) [phenyllactic acid], the LC retention time was determined as 2.08 min.

Consider `NC(CCCCn1c(C=O)ccc1CO)C(=O)O` (centres undefined) [pyrraline], for which the LC retention time was found to be 1.43 min.

For the compound `O=C(O)c1ccc2ccccc2n1` [quinaldic acid], the LC retention time was determined as 1.68 min.

For the compound `CNCC(=O)O` [sarcosine], the LC retention time was found to be 0.574 min.

Consider `OCC1OC(OC2(CO)OC(CO)C(O)C2O)C(O)C(O)C1O` (centres undefined) [sucrose], for which the LC retention time was determined as 0.661 min.

Take `CC(CCC(=O)NCCS(=O)(=O)O)C1CCC2C3CCC4CC(O)CCC4(C)C3CC(O)C12C` (centres undefined) [taurodeoxycholic acid]: the LC retention time was 3.33 min.

Regarding `Cn1cnc2c1c(=O)[nH]c(=O)n2C` [theobromine], the LC retention time stood at 1.37 min.

As for `O=C(O)C1CC(O)CN1` (stereo not drawn) [trans-4-hydroxy-l-proline], the LC retention time was 0.577 min.

`NCCc1c[nH]c2ccccc12` [tryptamine hydrochloride]: the LC retention time amounted to 1.53 min.

Regarding `COc1cc(C=O)ccc1O` [vanillin], the LC retention time was found to be 2.03 min.

The nature of the next series: RP, Waters ACQUITY UPLC HSS T3, 100 × 2.1 mm, 1.8 µm; A: water + 0.1% formic acid, pH 3; B: 30% methanol + 70% acetonitrile + 0.1% formic acid, pH 3; gradient (min/%B) 0.0/5 1.0/8 2.0/15 3.0/40 4.0/70 4.5/100 5.0/100 6.4/100 6.6/5.0 6.8/5.0 7.0/5.0. The note with it: stereoisomer not certain.
With `NC(CS)C(=O)O` (stereo not drawn) [l-cysteine], the LC retention time is 0.491 min.

On to `NC(CSSCC(N)C(=O)O)C(=O)O` (stereo not drawn) [l-cystine], for which the LC retention time is 0.447 min.

Turning to `NCCCCC(N)C(=O)O` (stereo not drawn) [l-lysine], the LC retention time was found to be 0.404 min.

As to `NCCCC(N)C(=O)O` (stereo not drawn) [l-ornithine monohydrochloride], the LC retention time was 0.415 min.

With `CCCCCCCCCCCC(=O)OC(CC(=O)[O-])C[N+](C)(C)C` (stereo not drawn) [lauroyl l-carnitine], the LC retention time was found to be 4.2 min.

Regarding `CC(=O)CCC(=O)O` [levulinic acid], the LC retention time came out at 1.46 min.

With `CCCCCCCCCCCCCCCC(=O)OCC(O)COP(=O)([O-])OCC[N+](C)(C)C` (centres undefined) [lysoPC(16:0/0:0)], the LC retention time was found to be 4.7 min.

As for `CCCCCCCCC=CCCCCCCCC(=O)OCC(O)COP(=O)([O-])OCC[N+](C)(C)C` (centres undefined) [lysoPC(18:1(9Z)/0:0)], the LC retention time worked out at 4.72 min.

On to `OC1C(O)C(O)C(O)C(O)C1O` (centres undefined) [myo-inositol], for which the LC retention time came out at 0.465 min.

`CC(=O)NC(CC(=O)O)C(=O)NC(CCC(=O)O)C(=O)O` (centres undefined) [n-acetyl-asp-glu]: the LC retention time came to 0.863 min.

For the compound `CC(=O)NC(Cc1ccc(O)cc1)C(=O)O` (stereo not drawn) [n-acetyl-l-tyrosine], the LC retention time was found to be 2.68 min.

Regarding `CCCCCCCCCCCC(=O)N(C)CC(=O)O` [n-lauroylsarcosine], the LC retention time was 4.6 min.

Take `NC(=O)c1cccnc1` [nicotinamide]: the LC retention time was 0.722 min.

For `O=C([O-])c1cc(=O)[nH]c(=O)[nH]1` [orotic acid], the LC retention time was 0.588 min.

On to `Nc1ccc(C(=O)NCC(=O)O)cc1` [p-aminohippuric acid], for which the LC retention time turned out to be 1.2 min.

For `Nc1ccc(C(=O)O)cc1` [paba], the LC retention time was 2.09 min.

Take `O=C1CCC(C(=O)N2CCCC2C(=O)O)N1` (centres undefined) [pglu-pro]: the LC retention time was determined as 2.02 min.

Take `O=C(O)C(O)Cc1ccccc1` (centres undefined) [phenyllactic acid]: the LC retention time is 3.49 min.

Take `NC(CCCCn1c(C=O)ccc1CO)C(=O)O` (centres undefined) [pyrraline]: the LC retention time is 2.31 min.

As to `O=C(O)c1ccc2ccccc2n1` [quinaldic acid], the LC retention time turned out to be 2.86 min.

As for `CNCC(=O)O` [sarcosine], the LC retention time was found to be 0.468 min.

With `OCC1OC(OC2(CO)OC(CO)C(O)C2O)C(O)C(O)C1O` (centres undefined) [sucrose], the LC retention time was 0.504 min.

On to `CC(CCC(=O)NCCS(=O)(=O)O)C1CCC2C3CCC4CC(O)CCC4(C)C3CC(O)C12C` (centres undefined) [taurodeoxycholic acid], for which the LC retention time worked out at 4.46 min.

In the case of `Cn1cnc2c1c(=O)[nH]c(=O)n2C` [theobromine], the LC retention time came out at 2.14 min.

For the compound `O=C(O)C1CC(O)CN1` (stereo not drawn) [trans-4-hydroxy-l-proline], the LC retention time was determined as 0.479 min.

Consider `NCCc1c[nH]c2ccccc12` [tryptamine hydrochloride], for which the LC retention time was found to be 2.65 min.

Take `COc1cc(C=O)ccc1O` [vanillin]: the LC retention time amounted to 3.45 min.
